From the supplement of paper PMC10307832

Assays:
Experiment in all cases: relative viability (nuclei count vs DMSO), 5 days (fraction); higher = more cells survive
Axitinib + Palbociclib = compound: CNC(=O)c1ccccc1Sc1ccc2c(/C=C/c3ccccn3)n[nH]c2c1 [Axitinib] + CC(=O)c1c(C)c2cnc(Nc3ccc(N4CCNCC4)cn3)nc2n(C2CCCC2)c1=O [Palbociclib] (partner 0.5 µM)
Method in brief: (§1)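 Lung cancer cell lines in 1536-well plates got either a single drug or a fixed anchor-drug dose together with five library-drug doses (not always all listed) in √10 steps, by pin tool, on the day after seeding. Nuclei were counted after 5 days, and relative viability is the treated-to-vehicle ratio of nuclei counts. Values are medians of duplicate plates.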

[1] = compound: CC1=CC=C(C=C1)C(=O)CN2C3=C(CCCC3)SC2=N [Pifithrin_alpha] + CC1(C)CCC(c2ccc(Cl)cc2)=C(CN2CCN(c3ccc(C(=O)NS(=O)(=O)c4ccc(N[C@H](CCN5CCOCC5)CSc5ccccc5)c(S(=O)(=O)C(F)(F)F)c4)cc3)CC2)C1 [Navitoclax] (partner 0.5 µM)
Method in brief: as §1

Bemcentinib + Pemetrexed = compound: Nc1nc(Nc2ccc3c(c2)CC[C@@H](N2CCCC2)CC3)nn1-c1cc2c(nn1)-c1ccccc1CCC2 [Bemcentinib] + Nc1nc2[nH]cc(CCc3ccc(C(=O)N[C@@H](CCC(=O)O)C(=O)O)cc3)c2c(=O)[nH]1 [Pemetrexed] (partner 0.2 µM)
Method in brief: as §1

Axitinib + Navitoclax = compound: CNC(=O)c1ccccc1Sc1ccc2c(/C=C/c3ccccn3)n[nH]c2c1 [Axitinib] + CC1(C)CCC(c2ccc(Cl)cc2)=C(CN2CCN(c3ccc(C(=O)NS(=O)(=O)c4ccc(N[C@H](CCN5CCOCC5)CSc5ccccc5)c(S(=O)(=O)C(F)(F)F)c4)cc3)CC2)C1 [Navitoclax] (partner 0.5 µM)
Method in brief: as §1

| Cell Line | relative viability (Axitinib + Palbociclib; first compound 0.005 µM) | relative viability (Axitinib + Palbociclib; first compound 0.01581 µM) | relative viability (Axitinib + Palbociclib; first compound 0.05 µM) | relative viability (Axitinib + Palbociclib; first compound 0.1581 µM) | relative viability (Axitinib + Palbociclib; first compound 0.5 µM) | relative viability ([1]; first compound 1 µM) | relative viability ([1]; first compound 3.162 µM) | relative viability ([1]; first compound 10 µM) | relative viability ([1]; first compound 31.62 µM) | relative viability ([1]; first compound 100 µM) | relative viability (Bemcentinib + Pemetrexed; first compound 0.04 µM) | relative viability (Bemcentinib + Pemetrexed; first compound 0.1265 µM) | relative viability (Bemcentinib + Pemetrexed; first compound 0.4 µM) | relative viability (Bemcentinib + Pemetrexed; first compound 1.265 µM) | relative viability (Bemcentinib + Pemetrexed; first compound 4 µM) | relative viability (Axitinib + Navitoclax; first compound 0.005 µM) | relative viability (Axitinib + Navitoclax; first compound 0.01581 µM) | relative viability (Axitinib + Navitoclax; first compound 0.05 µM) | relative viability (Axitinib + Navitoclax; first compound 0.1581 µM) | relative viability (Axitinib + Navitoclax; first compound 0.5 µM) |
| --- | --- | --- | --- | --- | --- | --- | --- | --- | --- | --- | --- | --- | --- | --- | --- | --- | --- | --- | --- | --- |
| NCI-H1975 | 0.694 | 0.586 | 0.507 | 0.541 | 0.672 | 0.918 | 0.848 | 0.621 | 0.616 | 0.686 | 0.307 | 0.362 | 0.301 | 0.283 | 0.299 | 1.24 | 1.07 | 1.14 | 1.19 | 1.17 |
| NCI-H1651 | 0.597 | 0.542 | 0.471 | 0.514 | 0.544 | 1.05 | 1.06 | 0.924 | 0.604 | 0.865 | 0.548 | 0.592 | 0.646 | 0.475 | 0.614 | 1.07 | 0.984 | 1.06 | 1.1 | 1.15 |
| NCI-H647 | 0.554 | 0.375 | 0.475 | 0.395 | 0.421 | 0.814 | 1.07 | 0.86 | – | 1.03 | 0.175 | 0.164 | 0.199 | 0.156 | 0.152 | 1.21 | 1.12 | 1.03 | 1.2 | 1.28 |
| HCC-78 | 0.504 | 0.408 | 0.469 | 0.5 | 0.449 | 0.752 | 0.768 | 0.623 | – | 0.783 | 0.923 | 1.01 | 0.942 | 0.895 | 0.95 | 0.873 | 0.842 | 0.727 | 0.754 | 0.737 |
| NCI-H2126 | 0.345 | 0.348 | 0.347 | 0.327 | 0.343 | 0.787 | 0.8 | 0.73 | 0.738 | 0.771 | 0.732 | 0.671 | 0.713 | 0.646 | 0.831 | 0.81 | 0.877 | 0.824 | 0.841 | 0.765 |
| SK-LU-1 | 0.433 | 0.406 | 0.38 | 0.368 | 0.355 | 1.07 | 1.07 | 1.07 | 0.626 | 0.823 | 1.02 | 1.04 | 1.08 | 1.08 | 0.984 | 0.955 | 1.2 | 0.932 | 0.812 | 1.13 |
| LC-2-ad | 0.473 | 0.532 | 0.485 | 0.503 | 0.523 | 0.462 | 0.323 | 0.408 | 0.249 | 0.32 | 0.252 | 0.28 | 0.258 | 0.262 | 0.273 | 0.572 | 0.576 | 0.532 | 0.506 | 0.573 |
| NCI-H23 | 0.458 | 0.512 | 0.616 | 0.483 | 0.559 | 0.797 | 0.857 | 0.889 | 0.736 | 0.729 | 0.626 | 0.724 | 0.941 | 0.763 | 0.738 | 0.907 | 0.947 | 0.856 | 0.87 | 0.893 |
| NCI-H2228 | 0.926 | 0.664 | 0.615 | 0.614 | 0.882 | 0.88 | 0.839 | 0.804 | 0.599 | 0.729 | 0.325 | 0.346 | 0.351 | 0.34 | 0.321 | 0.698 | 0.893 | 0.847 | 0.99 | 1.19 |
| SW 1573 | 0.36 | 0.448 | 0.395 | 0.384 | 0.473 | 1.06 | 1.03 | 1.18 | 0.923 | 0.893 | 0.944 | 0.865 | 0.89 | 0.839 | 0.725 | 0.914 | 1.03 | 1.05 | 0.852 | 0.904 |
| HCC-15 | 0.764 | 0.766 | 0.749 | 0.703 | 0.65 | 0.681 | 0.697 | 0.524 | 0.441 | 0.525 | 0.231 | 0.219 | 0.226 | 0.218 | 0.221 | 0.763 | 0.699 | 0.727 | 0.706 | 0.78 |
| H3255 | 0.332 | 0.294 | 0.316 | 0.334 | 0.329 | 0.376 | 0.428 | 0.444 | 0.434 | 0.497 | 0.533 | 0.616 | 0.585 | 0.624 | 0.517 | 0.617 | 0.377 | 0.354 | 0.476 | 0.561 |
| SK-MES-1 | 0.309 | 0.332 | 0.347 | 0.344 | 0.353 | 1.19 | 1.17 | 1.16 | 0.829 | 0.924 | 0.958 | 1.1 | 0.987 | 1.03 | 0.967 | 1.32 | 1.2 | 1.32 | 1.25 | 1.51 |
| COR-L 105 | 0.456 | 0.434 | 0.38 | 0.438 | 0.37 | 0.65 | 0.663 | 0.722 | 0.63 | 0.626 | 0.989 | 1.12 | 1.18 | 0.93 | 1.03 | 1 | 0.828 | 0.795 | 0.65 | 1.07 |
| NCI-H838 | 0.246 | 0.229 | 0.233 | 0.226 | 0.23 | 1.14 | 1.06 | 1 | 0.833 | 0.882 | 0.229 | 0.267 | 0.272 | 0.257 | 0.262 | 1.2 | 1.18 | 1.21 | 1.15 | 1.3 |
| NCI-H2170 | 0.494 | 0.438 | 0.385 | 0.444 | 0.435 | 0.557 | 0.512 | 0.576 | 0.494 | 0.535 | 0.264 | 0.278 | 0.283 | 0.244 | 0.264 | 0.661 | 0.715 | 0.621 | 0.617 | 0.707 |
| EKVX | 0.402 | 0.368 | 0.433 | 0.381 | 0.358 | 0.936 | 0.886 | 0.738 | 0.645 | 0.595 | 0.355 | 0.42 | 0.422 | 0.401 | 0.333 | 1.07 | 0.962 | 0.823 | 0.921 | 0.961 |
| RERF-LC-KJ | 1.09 | 1.16 | 1.03 | 1.14 | 1.11 | 0.591 | 0.619 | 0.5 | 0.824 | 0.412 | 0.467 | 0.46 | 0.464 | 0.463 | 0.449 | 1 | 0.942 | 0.973 | 1.02 | 1.28 |
| LK-2 | 0.492 | 0.661 | 0.544 | 0.659 | 0.668 | 0.862 | 1 | 0.749 | 0.534 | 0.997 | 0.246 | 0.323 | 0.294 | 0.256 | 0.294 | 1.1 | 0.84 | 0.657 | 0.659 | 0.644 |
| NCI-H1666 | 0.689 | 0.606 | 0.653 | 0.631 | 0.657 | 0.84 | 0.61 | 0.432 | 0.635 | 0.354 | 0.884 | 0.845 | 0.813 | 0.885 | 0.827 | 0.975 | 0.91 | 1.01 | 0.914 | 1.18 |
| NCI-H1755 | 0.472 | 0.423 | 0.462 | 0.512 | 0.42 | 0.935 | 0.973 | 0.888 | 0.628 | 0.966 | 0.418 | 0.498 | 0.565 | 0.569 | 0.455 | 1.04 | 0.92 | 0.99 | 0.964 | 1 |
| NCI-H520 | 0.242 | 0.19 | 0.205 | 0.194 | 0.187 | 1.11 | 1.32 | 1.16 | 0.94 | 1.12 | 0.65 | 0.848 | 0.788 | 0.686 | 0.785 | 0.987 | 1.26 | 1.1 | 0.794 | 1.11 |
| PC-14 | 0.498 | 0.427 | 0.511 | 0.563 | 0.71 | 1.01 | 0.988 | 0.988 | 0.881 | 0.847 | 0.131 | 0.13 | 0.139 | 0.141 | 0.124 | 1.09 | 1.01 | 1.05 | 0.967 | 1.05 |
| NCI-H2405 | 0.505 | 0.524 | 0.542 | 0.517 | 0.537 | – | 0.81 | 0.813 | 0.635 | 0.689 | 1.01 | 1.12 | 1.14 | 1.11 | 1.19 | 0.913 | 0.933 | 0.881 | 0.857 | 1.11 |
| NCI-H1395 | 0.594 | 0.509 | 0.507 | 0.579 | 0.711 | – | 1.15 | 1.34 | 0.604 | 1.31 | – | 1.03 | 0.903 | 0.797 | 0.82 | 1.14 | 1.21 | 1.02 | 1.01 | 1.57 |
